Residues, ends and D or L forms follow the SMILES beside them.
What was measured:
[1] = Selectivity for alpha3beta2 nAChR over alpha6beta2 nAChR
[2] = target: Neuronal acetylcholine receptor; alpha6/beta2 (Homo sapiens, UniProt P17787+Q15825); assay: Inhibition of alpha6beta2 nAChR; assay type: protein-complex assay
[3] = target: Neuronal acetylcholine receptor; alpha3/beta2 (Homo sapiens, UniProt P17787+P32297); assay: Inhibition of alpha3beta2 nAChR; assay type: protein-complex assay
[4] = Selectivity ratio of IC50 for alpha6beta2 nAChR to IC50 for alpha3beta2 nAChR
Macaca mulatta [5] = species: Macaca mulatta; assay: Selectivity ratio of monkey alpha-6-alpha-4-beta-2 nAChR over monkey alpha-6-(non-alpha-4)-beta-2 nAChR
Macaca mulatta [6] = species: Macaca mulatta; assay: Binding affinity to monkey alpha-6-alpha-4-beta-2 nAChR
Macaca mulatta [7] = species: Macaca mulatta; assay: Binding affinity to monkey alpha-6-(non-alpha-4)-beta-2 nAChR

Chain of Neuronal acetylcholine receptor; alpha6/beta2 (P17787 whole entry): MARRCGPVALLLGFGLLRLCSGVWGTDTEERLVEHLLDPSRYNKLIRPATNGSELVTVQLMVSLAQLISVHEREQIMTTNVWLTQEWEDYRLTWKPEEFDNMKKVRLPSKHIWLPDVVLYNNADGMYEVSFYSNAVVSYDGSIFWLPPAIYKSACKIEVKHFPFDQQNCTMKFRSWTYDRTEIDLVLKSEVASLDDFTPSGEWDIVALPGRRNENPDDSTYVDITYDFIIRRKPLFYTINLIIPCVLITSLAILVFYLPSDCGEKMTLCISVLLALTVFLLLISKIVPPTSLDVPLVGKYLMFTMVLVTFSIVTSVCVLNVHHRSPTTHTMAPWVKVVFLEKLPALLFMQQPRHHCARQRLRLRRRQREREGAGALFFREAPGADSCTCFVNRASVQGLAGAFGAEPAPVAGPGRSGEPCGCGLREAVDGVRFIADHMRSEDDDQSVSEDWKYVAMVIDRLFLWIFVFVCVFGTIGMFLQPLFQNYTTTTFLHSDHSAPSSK
Chain of Neuronal acetylcholine receptor; alpha6/beta2 (Q15825 whole entry): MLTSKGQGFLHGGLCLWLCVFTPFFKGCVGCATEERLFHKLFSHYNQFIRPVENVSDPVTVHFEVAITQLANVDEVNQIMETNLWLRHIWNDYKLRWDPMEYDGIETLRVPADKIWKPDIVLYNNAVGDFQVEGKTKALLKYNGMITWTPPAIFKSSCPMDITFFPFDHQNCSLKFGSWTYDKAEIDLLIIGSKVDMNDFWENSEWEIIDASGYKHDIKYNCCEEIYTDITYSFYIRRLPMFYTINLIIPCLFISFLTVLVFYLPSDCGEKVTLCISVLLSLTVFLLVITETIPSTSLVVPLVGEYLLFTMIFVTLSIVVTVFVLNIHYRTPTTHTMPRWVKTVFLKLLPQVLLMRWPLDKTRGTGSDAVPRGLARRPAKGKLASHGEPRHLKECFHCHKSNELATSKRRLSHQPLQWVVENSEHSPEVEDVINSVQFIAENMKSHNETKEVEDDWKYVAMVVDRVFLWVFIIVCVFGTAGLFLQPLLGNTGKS
Chain of Neuronal acetylcholine receptor; alpha3/beta2 (P17787 whole entry): as the sequence (P17787 whole entry) above
Chain of Neuronal acetylcholine receptor; alpha3/beta2 (P32297 whole entry): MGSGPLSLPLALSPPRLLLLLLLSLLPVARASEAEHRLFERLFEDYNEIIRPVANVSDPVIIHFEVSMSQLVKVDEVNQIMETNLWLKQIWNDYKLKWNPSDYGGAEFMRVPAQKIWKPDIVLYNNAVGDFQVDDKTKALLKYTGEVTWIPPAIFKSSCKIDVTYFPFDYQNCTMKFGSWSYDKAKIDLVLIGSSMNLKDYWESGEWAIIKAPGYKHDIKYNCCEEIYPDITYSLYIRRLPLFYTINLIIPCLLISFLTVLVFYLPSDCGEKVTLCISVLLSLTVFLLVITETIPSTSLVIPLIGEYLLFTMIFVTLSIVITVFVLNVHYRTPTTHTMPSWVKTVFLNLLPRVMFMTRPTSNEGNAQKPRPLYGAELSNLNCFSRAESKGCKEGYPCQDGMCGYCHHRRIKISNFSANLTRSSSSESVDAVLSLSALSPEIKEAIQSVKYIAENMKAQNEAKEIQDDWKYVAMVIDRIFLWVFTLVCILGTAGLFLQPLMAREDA

SMILES | Selectivity ratio [1] | IC50 [2] [nM] | IC50 [3] [nM] | Ratio IC50 [4] | Selectivity ratio (Macaca mulatta [5]) | Activity (Macaca mulatta [6]) [pM] | Activity (Macaca mulatta [7]) [fM]
CC[C@H](C)[C@H](NC(=O)[C@H](CCC(N)=O)NC(=O)[C@@H]1CCCN1C(=O)[C@H](CC(N)=O)NC(=O)[C@H](Cc1cnc[nH]1)NC(=O)[C@@H](NC(=O)[C@@H](NC(=O)[C@H](CS)NC(=O)[C@@H](NC(=O)[C@@H]1CCCN1C(=O)[C@H](CC(N)=O)NC(=O)[C@H](CO)NC(=O)[C@H](CS)NC(=O)[C@H](CS)NC(=O)[C@@H]1CCCN1C(=O)[C@H](CC(=O)O)NC(=O)[C@@H](N)CCCNC(=N)N)C(C)C)[C@@H](C)O)C(C)C)C(=O)N[C@@H](CS)C(=O)O (H-RDPCCSNPVCTVHNPQIC-OH) | 75 | 0.95 | 74.2 | 78.1 |  |  | 
CC[C@H](C)[C@H](NC(=O)[C@H](Cc1cnc[nH]1)NC(=O)[C@H](CCC(N)=O)NC(=O)[C@H](CC(N)=O)NC(=O)[C@H](CC(N)=O)NC(=O)CNC(=O)[C@H](C)NC(=O)[C@H](CS)NC(=O)[C@H](C)NC(=O)[C@@H]1CCCN1C(=O)[C@H](Cc1cnc[nH]1)NC(=O)[C@H](CO)NC(=O)[C@H](CS)NC(=O)[C@H](CS)NC(=O)CN)C(=O)N[C@@H](CS)C(=O)O |  | 3 | 1.1 | 0.4 |  |  | 
CC(C)C[C@H](NC(=O)[C@H](CC(N)=O)NC(=O)[C@H](CO)NC(=O)[C@H](Cc1cnc[nH]1)NC(=O)[C@H](CCC(=O)O)NC(=O)[C@H](CC(C)C)NC(=O)[C@H](Cc1cnc[nH]1)NC(=O)[C@H](CS)NC(=O)[C@@H](NC(=O)[C@@H]1CCCN1C(=O)[C@H](CC(N)=O)NC(=O)[C@H](CO)NC(=O)[C@H](CS)NC(=O)[C@H](CS)NC(=O)CN)C(C)C)C(=O)N[C@@H](CS)C(=O)O |  | 0.39 | 0.5 |  |  |  | 
CC(C)C[C@H](NC(=O)[C@H](Cc1cnc[nH]1)NC(=O)[C@H](CS)NC(=O)[C@@H](NC(=O)[C@@H]1CCCN1C(=O)[C@H](CC(N)=O)NC(=O)[C@H](CO)NC(=O)[C@H](CS)NC(=O)[C@H](CS)NC(=O)CN)C(C)C)C(=O)N[C@@H](C)C(=O)N[C@@H](Cc1cnc[nH]1)C(=O)N[C@@H](CO)C(=O)N[C@@H](CC(N)=O)C(=O)N[C@@H](CC(C)C)C(=O)N[C@@H](CS)C(=O)O (H-GCCSNPVCHLAHSNLC-OH) |  | 0.16 | 8.72 | 54.5 | 5300 | 51 | 9.7

Reference: ChEMBL document CHEMBL1152511, “Structural basis for alpha-conotoxin potency and selectivity” (Bioorg Med Chem, 2009)
